US4939134A, “26-aminocholesterol and derivatives and analogs thereof in the regulation of cholesterol accumulation in body tissue” (New York University, priority 1988, dated 1990)
Entries after “also recorded” stand apart in the source; their conditions may differ.

Assays:
Human Fibroblasts = experiment: De novo cholesterol synthesis in human fibroblasts (D2O); format: cell-based; details: for % DE NOVO (De Novo Cholesterol Synthesis): 96 h, n = 3, untreated 19.0
Experimental: Normal LDLR(+) human fibroblasts (GM3440) were obtained from the National Institute of General Medical Sciences Human Genetic Cell Repository. Stock fibroblast monolayers were maintained in T-75 disposable Nunc flasks, in a medium comprising 10 ml of MEM (Eagle's Minimum Essential Medium with Earl's salts, pH 7.4) supplemented with 10% (v/v) fetal bovine serum (FBS), 2% (v/v) non-essential and essential amino acids, 1% (v/v) MEM vitamins, 1% L-glutamine (292 ug/ml), 1% penicillin (100 U/ml)-streptomycin (100 ug/ml). The fibroblast stock was maintained at 37° C. in a humidified atmosphere of 5% CO2 and 95% air.
For experiments using fibroblasts, confluent stock cultures (5-18 passages) were washed once with Dulbecco's PBS (phosphate buffered saline) prior to the addition of 3 ml aliquots of experimental MEM containing 25% (v/v) D2 O, 9% (v/v) dilapidated FBS, 1% FBS (v/v), 1% MEM vitamins and L-glutamine, and 2% of essential and non-essential amino acids and 20 mM HEPES buffer.
(§1) The fibroblast and hepatoblastoma cells were cultured in media containing 25% D2 O and 1% FBS in order to determine de novo cholesterol synthesis under conditions that permit receptor mediated cholesterol transport, according to the method of Easterman & Javitt et al., J. Lipid Res., 26: 950-954 (1985). Dish cultures of each cell type were prepared, and 26-aminocholesterol, dissolved in N,N-dimethylformamide (DMF, 9 ul per dish, 0.3% v/v) was added to each culture. The cells were then grown to confluence (96 hours, day 5). […] Duplicate or triplicate dishes containing 9 ul of DMF, but without 26-aminocholesterol, were used as controls.
(§2) After 96 hours of incubation, medium was removed from the cell cultures, and the cells were washed with Dulbecco's PBS and were harvested with 0.05% trypsin - 0.02% EDTA. The protease was deactivated with an equivolume aliquot of soybean trypsin inhibitor, and the resulting cell suspension was centrifuged for 5 minutes at 500xg. An internal standard of 5B-cholestan-3B-ol was added to the pellets prior to extraction with an 8:4:3 chloroform:methanol:water Folch mixture, as described in Folch et al., J. Biol. Chem., 266: 497-509 (1957). An aliquot of the extract was blown to dryness under nitrogen and silylated with 2:1:1 MSTFA (a sylated reagent supplied by Pierce Co.): toluene:-pyridine. Free cholesterol was determined by gas-liquid chromatography (GLC) on a Perkin-Elmer capillary gas-liquid chromatography model 8320 fitted with a 20 m DE-1 methylsilicon glass column (Supelco). The remaining extract was dried and saponified with 2% ethanolic KOH at 80° C. for one hour. The […] was then re-extracted and total cholesterol was measured by GLC after silylation. Cholesterol ester was calculated as the difference between the total and free cholesterol determinations. Newly synthesized cholesterol was determined by GLC-MS isotope mass ratios, using a Hewlett-Packard GC-MS spectrometer model 5890 fitted with DB-1 methyl silicon 0.18 i.d. 20 m glass column (Supelco), according to the method of J. Lipid. Res., 26: 950-954, supra. […]

[1] = test system: DNA synthesis and cell growth; details: mechanism appears independent of HMG CoA reductase activity; cited from earlier work
[2] = test system: fibroblast and hepatoblastoma cells; format: cell-based, human
Experimental: Lipid Res., 26: 950-954 (1985). Dish cultures of each cell type were prepared, and 26-aminocholesterol, dissolved in N,N-dimethylformamide (DMF, 9 ul per dish, 0.3% v/v) was added to each culture. The cells were then grown to confluence (96 hours, day 5). […] Duplicate or triplicate dishes containing 9 ul of DMF, but without 26-aminocholesterol, were used as controls.

HMG CoA reductase = HMG CoA reductase activity in fibroblasts; format: cell-based
HepG2 Cells = experiment: De novo cholesterol synthesis in HepG2 hepatocytes (D2O); format: cell-based, human; details: for % DE NOVO (De Novo Cholesterol Synthesis): HepG2, 96 h, n = 3, untreated 55.8; for de novo cholesterol synthesis (in words): HepG2 / human hepatocytes
Source text: HepG2 cells were obtained from Dr. Barbara Knowles of the Wistar Institute, Pennsylvania. The HepG2 stock monolayers were maintained under the same conditions as the fibroblast monolayers, in a medium comprising MEM supplemented with 10% heat-inactivated FBS, and 1% (v/v) each of penicillin-streptomycin solution, non-essential and essential amino acids, and L-glutamine.
For experiments using HepG2 cells, confluent stock monolayers were washed once with Dulbecco's PBS, dissociated with 0.05-0.02% trypsin-EDTA followed by treatment with deoxyribonuclease I (0.1%), and were seeded (3.0×10^6) under identical conditions. The experimental MEM contained 25% (v/v) D2 O, 9% (v/v) delipidated FBS, and 1% (v/v) each of heat-inactivated FBS, penicillin-streptomycin, essential and non-essential amino acids, L-glutamine and 20 mM HEPES.
as §1, §2

SMILES | de novo cholesterol synthesis (in words) (Human Fibroblasts) | % DE NOVO (De Novo Cholesterol Synthesis) (Human Fibroblasts; 0.156 uM) | % DE NOVO (De Novo Cholesterol Synthesis) (Human Fibroblasts; 0.312 uM) | % DE NOVO (De Novo Cholesterol Synthesis) (Human Fibroblasts; 0.625 uM) | DNA synthesis and cell growth [1] | effect on cell growth [2] | HMG CoA reductase activity (HMG CoA reductase) | % DE NOVO (De Novo Cholesterol Synthesis) (HepG2 Cells; 0.156 uM) | % DE NOVO (De Novo Cholesterol Synthesis) (HepG2 Cells; 0.312 uM) | % DE NOVO (De Novo Cholesterol Synthesis) (HepG2 Cells; 0.625 uM) | de novo cholesterol synthesis (in words) (HepG2 Cells) | % DE NOVO (De Novo Cholesterol Synthesis) (Human Fibroblasts; 5.0 uM) | % DE NOVO (De Novo Cholesterol Synthesis) (Human Fibroblasts; 10.0 uM) | % DE NOVO (De Novo Cholesterol Synthesis) (Human Fibroblasts; 20.0 uM) | % DE NOVO (De Novo Cholesterol Synthesis) (HepG2 Cells; 5.0 uM) | % DE NOVO (De Novo Cholesterol Synthesis) (HepG2 Cells; 10.0 uM) | % DE NOVO (De Novo Cholesterol Synthesis) (HepG2 Cells; 20.0 uM)
C[C@@H](CN)CCC[C@@H](C)[C@H]1CC[C@H]2[C@@H]3CC=C4C[C@@H](O)CC[C@]4(C)[C@H]3CC[C@]12C [26-NH2, 26-aminocholesterol] | significant reductions | 16.7% | 10.0% | 2.7% | downregulate DNA synthesis and cell growth | No effect on cell growth was observed | inhibit HMG CoA reductase activity | 38.3% | 45.1% | 42.0% | do not provide a similar reduction; also recorded: no impact |  |  |  |  |  | 
CC(CO)CCC[C@@H](C)[C@H]1CC[C@H]2[C@@H]3CC=C4C[C@@H](O)CC[C@]4(C)[C@H]3CC[C@]12C (some centres unmarked) [26-OH, 26-hydroxycholesterol] | significant reductions |  |  | 3.9% |  |  |  |  |  | 57.1% | do not provide a similar reduction |  |  |  |  |  | 
CC(CS)CCC[C@@H](C)[C@H]1CC[C@H]2[C@@H]3CC=C4C[C@@H](O)CC[C@]4(C)[C@H]3CC[C@]12C (some centres unmarked) [26-SH] | no impact |  |  |  |  |  |  |  |  |  | no impact | 27.8% | 21.9% | 13.6% | 49.7% | 47.9% | 41.9%
